Here are results for one compound from patent US10226463B2, “Fluorouracil glycolate compound for the treatment of warts, molluscum contagiosum” (priority 2012, dated 2019).

Series [1] is described as follows: systemic absorption after topical application to the lesion. The format is in vivo. The note with it: saturation of the lesion. The source says:
(§1) Fluorouracil Glycolate is formed by a chemical reaction between fluorouracil and glycolic acid, in an acid-base reaction under the Lowry-Bronsted model in a typical acid-base reaction. The new unique compound when formed is stable at room temperature for approximately one year. The molecular weight of the new compound is 205.72. The magic wart cream formulation, a thick cream resembling peanut butter, has a consistency designed for easy application to the lesions with a toothpick. This is to eliminate any messy, troublesome dribbling as this was a problem encountered early and then overcome on a trial and error basis, resulting in the thicker consistency. By applying the magic wart cream to only the center of the wart, and not to the edges, it focuses the target of the high-sulfur containing, amino acid rich matrix of keratin to where the fluorouracil glycolate can pool. Then it forms a depot within the small socket of the lesion. This dictates the nature of the liberation absorption and distribution the drug delivery system.

The nature of series [2]: stability of the formed compound at room temperature. The format is physicochemical.
Description: as §1

On to `O=C(O)CO.O=c1[nH]cc(F)c(=O)[nH]1` [Fluorouracil Glycolate], for which, in series [1], the systemic absorption entry is “without observed systemic absorption”. The “stable at room temperature (duration)” value in series [2] is reported as “approximately one”.
